Results taken from patent US20030118983A1, “Rapid screening procedure for inflammation mediators” (priority 2000, published 2003).
“And” between values parts separate entries of the source, which are not always exact repeats. Identical values can stand only once.

Tests used:
[1] = system: PMNs; experiment: Heme protein effect on DCFH oxidation in unstimulated, LPS and TNFα-, and PMA-stimulated PMNs, with or without NOS inhibitors, SOD or antioxidants; type: cell-based, human; settings: PMA-stimulated PMNs with arginine
Procedure: DCFH-loaded PMNs were incubated with and without N-methyl-L-arginine (L-NMMA; 5 mM; Calbiochem, San Diego, Calif.) and heme proteins (0.3-1000 μg/mL) at 37 ° C. for 10 minutes. […] In unstimulated and LPS and TNFα -stimulated PMNs, the treatments were oxyMb, or oxyMb+L-NMMA (5 mM). […] RBC cell membranes were ruptured using a micro-ultrasonic cell disrupter, Kontes, Janke and Kukel Gmbh and CO. (Stauten, Germany). […] OxyMb was prepared by mixing excess sodium dithionite with Mb for 1 h and inorganic sulfur compounds were removed by dialyzing in HBSS buffer for 3 h. Percent iron in the ferric state in non-dithionite treated oxyMb or oxyHb was not assessed. […] […] cross-linked Hb was a gift from Walter Reed Army Institute of Research. […] Also, various concentrations of bovine liver Cu, Zn SOD (30-10,000 U/mL; 8-2640 μg/mL) and 30 μg/mL oxyMb were incubated with PMA-stimulated PMNs pretreated with and without L-NMMA. Flow cytometric measurements of oxidant-induced DCF fluorescence were performed as described above.

[2] = system: MNCs; experiment: Intracellular oxidants (DCF) in MNCs activated with cytokine cocktail and hemoglobin; type: cell-based, human; settings: for dampening effect on oxidant production: cytokine and hemoglobin activation, 10 μM steroid
Procedure: (§1) PMNs and MNCs were harvested from blood via centrifugation with equal volumes of Polymorphprep, GIBCO (Grand Island, N.Y.) at 550×g for 35 minutes at 20° C. […] Replicate experiments were conducted with three to five donors from a pool of six consented male adults.
(§2) PMNs (10,000,000/ml) and MNCs (20,000,000/ml) were loaded with 2,7-dichlorodihydrofluorescein-diacetate (DCFH-DA) (2 μM) (Molecular Probes; Eugene Oreg.) in HBSS for 30 minutes at 37° C. in a water bath. Non fluorescent DCFH is oxidized to fluorescent DCF by a variety of oxidants. The approach is sensitive, reproducible, and capable of measuring wide concentration range of intracellular oxidants. […] Treated PMNs or MNCs were incubated for 1 or 5 h in HBSS amended with physiological concentrations of Ca^2+ (1.5 mM), Mg^2+ (900 μM), glutamine (1.0 mM); GIBCO; Grand Island, N.Y.), arginine (100 μM), amino acids (1×MEM)(GIBCO; Grand Island, N.Y.), and tetrahydrobiopterin (1.0 μM). Flow cytometric analyses were performed with an argon laser (488 nm) and emission light measured behind a filter transmitting 530/30 nm light on a FACCalibur, Becton Dickinson (San Jose, Calif.) with CELLQuest data acquisition and analysis software. PMNs or MNCs were gated by forward- and side-scatter. For each sample, 10,000 PMNs or MNCs were collected.
(§3) Statistical Analyses Intracellular oxidants in activated MNCs or PMNs treated with the three highest steroid concentrations or the L-NMMA treatment were compared to untreated activated MNCs or PMNs by Bonferroni corrected t-test.

[3] = system: PMNs; experiment: Intracellular oxidants (DCF) in PMNs activated with cytokine cocktail and hemoglobin; type: cell-based, human; settings: for effect on oxidants in PMNs: cytokine and hemoglobin activated PMNs
Procedure: as §1, §2, §3

[4] = system: PMNs; experiment: HE-induced DNA strand breaks in PMNs (dUTP nick end labeling); type: cell-based, human; settings: for effect on HE-induced DNA strand breaks: at HE-induced peak values (3-6 nM)
Procedure: HE-induced DNA strand breaks in PMNs were measured by flow cytometry using the tdt-mediated dUTP nick end labeling assay, In Situ Cell Death Detection Kit (Boehringer Mannheim, Indianapolis, Ind.) according to manufacturer's instructions. PMNs were incubated with L-NMMA, 17β-E2 receptor antagonists, TNFα, and varying concentrations of HE as described in the above HE-induced DCFH oxidation experiments with the exception that HE incubation time was 2 h instead of 40 min.
In Vitro measurements of oxidant production and cellular damage.

[5] = system: PMNs; experiment: HE and 17β-E2 effects on intracellular oxidants (NO) in PMNs, DCFH oxidation; type: cell-based, human; settings: for effect on HE-induced intracellular oxidants (NO): ICI 182,780 0.1 nM
Procedure: HE effects on intracellular levels of oxidants in PMNs were measured using a previously reported cytofluorometric procedure.
(§4) The purity of PMNs and lymphocytes was greater than 88% and 95%, respectively, and their viability, as determined by trypan blue-exclusion, was greater than 90%.

[6] = Organochlorine insecticide levels in serum of burn patients; type: in vivo, human; settings: for mean peak serum levels: nonsurviving burn patients; for mean peak serum levels / mean peak serum levels higher than in surviving patients: PBD5; for mean peak serum levels higher than in surviving patients: nonsurviving patients
Procedure: Patients and Subjects. Analyses of xenoestrogens in archived serum were performed on samples from seven nonsurviving males and seven age- and burn-size matched surviving male burn patients admitted between 1991 and 1994 to the United States Army Institute of Surgical Research burn care facility. The criteria for selection of subjects were age (approximately 40-70 years), total burn surface area (≧25%), postburn survival (≧7 days) and lack of preburn disease. Inhalation injury was present in 6 of 7 surviving and 5 of 7 nonsurviving patients. In the non-surviving group, two patients died between postburn day (PBD) 7 and 11. Age-matched healthy males (n=12) were used as control subjects.
Levels of insecticides in serum of burn patients on postburn day (PBD) 1, 3, 5, 7, and 11 were determined in accordance with a previously reported method25. This method used a Dynamic Thermal Stripper (Environchem, Kemblesville, Pa.) to sparge insecticides from 50 μl of serum. The insecticides were collected on Tenax solid sorbent and subsequently thermally desorbed with a Unacon 810 (Environchem, Kemblesville, Pa.) into a HP 5890 gas chromatograph (Hewlett Packard, Palo Alto, Calif.) equipped with a SPB-608 30 M, fused silica capillary column (J & W Scientific, Folsom, Calif.) and an electron capture detector. Levels of insecticides in serum stored at −75° C. were determined by comparing responses to standard curves constructed from certified standards (Ultra Scientific, Kingstown, R.I.) spiked into a composite sample consisting of serum from 3 subjects, previously determined to have low levels of each insecticide. For consistency, each patient's samples were analyzed during the same day by postburn day (PBD 1, 3, 7, and 11). The detection limit for HE and OC was 76 and 56 pg/mL, respectively. A reference serum sample pooled from 3 patients having medium levels of each insecticide was measured 1-2 times during each day of analyses. […] Serum cholesterol and triglyceride concentrations were determined using Instrumentation Laboratory reagents and analyzed on a Monarch Clinical Chemistry System (Instrumentation Laboratories, Inc., Lexington, Mass.).

[7] = system: lymphocytes; experiment: HE effect on lymphocyte membrane integrity in mixed PMN/lymphocyte preparation (propidium iodide)
Procedure: HE effects on surrounding lymphocyte membrane integrity mediated by PMN-derived NO were determined by cytofluorometric measurements of intracellular propidium iodide levels in a mixed PMN/lymphocyte preparation using 100,000 lymphocytes and PMN/lymphocyte ratios of 0/1, 2/1, 4/1, 10/1). For comparison some aliquots of PMNs were loaded with L-NMMA (5 mM) or 2-(4-carboxyphenyl)-4,4,5,5-tetramethyl imidazoline-1-oxyl-3-oxide (carboxy-PTIO) (5 mM) (Calbiochem, La Jolla, Calif.), a NO scavenger, prior to incubating leukocytes with HE (1 nM) for 40 min.
as §4

[8] = system: PMNs; settings: for decrease in DCFH oxidation: 10^−4 M oxidant; for increase in DCFH oxidation over control levels: 10^−5 M oxidant, 30 min
[9] = system: PMNs; experiment: Propidium iodide staining of oxidant-treated PMNs (cell membrane integrity); settings: oxidant levels ≧10^−7 M
[10] = system: PMNs; experiment: Heme protein effect on DCFH oxidation in unstimulated, LPS and TNFα-, and PMA-stimulated PMNs, with or without NOS inhibitors, SOD or antioxidants; type: cell-based, human; settings: PMA-stimulated PMNs; L-NMMA 5 mM, L-NIO 5 mM, glutathione 25 μM and ascorbate 25 μM, human SOD 300 U/mL
[11] = TNFα 10 ng/mL added to HE-treated PMNs

## oxyhemoglobin [oxyHb]
[1]
  less efficient than oxyMb in inducing DCFH oxidation: 20-40%

## hemoglobin: human hemoglobin (100 μg/mL)
[2]; MNCs, after 1 h, data not shown
  increase of mean oxidized DCF over unstimulated background: 41%
[2]; MNCs, after 5 h
  increase of mean intracellular oxidized DCF over unstimulated background: 259%
[3]; PMNs, after 1 h, data not shown
  increase of mean oxidized DCF over unstimulated background: 172%
[3]; PMNs, after 5 h
  increase of mean intracellular oxidized DCF over unstimulated background: 197%

## C[C@]12CCC(=O)C=C1CC[C@@H]1[C@@H]2[C@@H](O)C[C@@]2(C)[C@H]1CC[C@]2(O)C(=O)CO [cortisol]
[2]; 5 h versus 1 h of stimulation
  time dependence of oxidant reduction in MNCs: reduced oxidant levels in MNCs to a greater extent after 5 h as compared to 1 h of stimulation
[2]; MNCs, after 1 h
  dampening effect on oxidant production: 20%
[3]
  effect on oxidants in PMNs: modest trend for reducing oxidant levels after 5 h

## TNFα
[4]; TNFα added to HE
  increase in amplitude of HE DNA strand break Gaussian curve: 445%
  left shift of HE DNA strand break Gaussian curve: 10 fold
[5]; [11]
  increase in amplitude of HE intracellular oxidant Gaussian curve: 60%
  left shift of HE intracellular oxidant Gaussian curve: 10 fold

## ClC(Cl)=C(c1ccc(Cl)cc1)c1ccc(Cl)cc1 [DDE]
[6]; nonsurvivors, by PBD 11
  increase of mean serum level: 2.5 times
  mean serum level: 3667 pg/mL and 183 nM

## ClC1=C(Cl)[C@]2(Cl)[C@H]3[C@H]([C@H](Cl)[C@]4(Cl)O[C@H]34)[C@@]1(Cl)C2(Cl)Cl [OC]
[6]
  mean peak serum levels: 677 pg/ml and 1.59 nM
  mean peak serum levels higher than in surviving patients: approximately 90%

## C[C@]12CC[C@@H]3c4ccc(O)cc4C[C@@H](CCCCCCCCC[S+]([O-])CCCC(F)(F)C(F)(F)F)[C@H]3[C@@H]1CC[C@@H]2O (stereo partly drawn) [ICI 182,780, reference compound]
[4]
  effect on HE-induced DNA strand breaks: nonsignificant trend for attenuating HE-induced DNA strand breaks
[5]; L-NMMA 5 mM, tamoxifen 200 nM
  effect on HE-induced intracellular oxidants (NO): completely eliminated the HE-induced increase in NO

## CC(=O)[C@H]1CC[C@H]2[C@@H]3CCC4=CC(=O)CC[C@]4(C)[C@H]3CC[C@]12C [P4, progesterone]
[2]; MNCs, after 1 h
  dampening effect on oxidant production: 0%
[3]
  effect on oxidants in PMNs: no effect on oxidants

## ClC1=C(Cl)C2(Cl)C3C4OC4C(Cl)C3C1(Cl)C2(Cl)Cl (stereo not drawn) [HE]
[4]; 2 h incubation
  HE concentration of peak response of DNA strand breaks, Gaussian curve: approximately 5 nM
[4]; co-incubation with TNFα
  HE concentration of peak response of DNA strand breaks, with TNFα: approximately 0.3 nM
[6]
  mean peak serum levels: 215 pg/ml and 0.55 nM
  mean peak serum levels higher than in surviving patients: approximately 90%
[5]; co-incubation with TNFα 10 ng/mL
  HE concentration of peak response of intracellular oxidants, with TNFα: approximately 0.1 nM
[7]; HE 1 nM, PMN/lymphocyte ratios above 2
  effect on cell membrane damage in lymphocytes: increased cell membrane damage in the lymphocytes

## OO [H2O2, hydrogen peroxide]
[8]
  decrease in DCFH oxidation: approximately 25%
  increase in DCFH oxidation over control levels: 25 fold
[9]
  PMNs staining positive for propidium iodide: 87%

## C[C@]12CC[C@@H]3c4ccc(O)cc4CC[C@H]3[C@@H]1CC[C@@H]2O [17β-E2, 17β-estradiol]
[2]; MNCs, after 1 h
  dampening effect on oxidant production: 65%
[3]
  effect on oxidants in PMNs: no effect on oxidants

## CC(=N)NCCCC[C@H](N)C(=O)O [L-NIL, L-N^6-(-1-Iminoethyl)lysine]
[2]; L-NIL 10 μM
  effect on oxidants in activated MNCs: negligible effects on activated MNCs and PMNs
[3]; L-NIL 10 μM
  effect on oxidants in activated PMNs: negligible effects on activated MNCs and PMNs

## CC/C(=C(\c1ccccc1)c1ccc(OCCN(C)C)cc1)c1ccccc1 [tamoxifen, reference compound]
[4]
  effect on HE-induced DNA strand breaks: nonsignificant trend for attenuating HE-induced DNA strand breaks
[5]; L-NMMA 5 mM, tamoxifen 200 nM
  effect on 17β-E2-induced intracellular oxidants (NO): completely inhibited the 17β-E2-induced NO levels
  effect on HE-induced intracellular oxidants (NO): completely eliminated the HE-induced increase in NO

## human erythrocyte Cu, Zn SOD: superoxide scavenger, superoxide dismutase from human erythrocytes
[10]
  effect on oxyMb-induced DCFH oxidation: increased oxyMb induced-DCFH oxidation

## CCN(CC)/[N+]([O-])=N/O.CCNCC [DEANO, diethylamine nitric oxide]
[8]
  decrease in DCFH oxidation: approximately 25%
  increase in DCFH oxidation over control levels: 25 fold
[9]
  PMNs staining positive for propidium iodide: 87%

## O.O.O.O.[Cl][Fe][Cl] [FeCl2.4H2O, reference compound]
[1]
  effect on DCFH oxidation: produced a decrease in DCFH oxidation above 30 μg/mL

## CC1(C)N([O])C(c2ccc(C(=O)O)cc2)=[N+]([O-])C1(C)C [PTIO, 2-(4-carboxyphenyl)-4,4,5,5-tetramethyl imidazoline-1-oxyl-3-oxide, reference compound]
[7]; co-incubation with HE 1 nM
  effect on HE-induced cell membrane damage in lymphocytes: attenuated the HE-induced cell membrane damage in the lymphocytes
